Laboratory results as given in patent publication US11325899B2, “Benzofurane and benzothiophene derivatives as PGE2 receptor modulators” (IDORSIA PHARMACEUTICALS LTD, priority 2017, dated 2022).

What was measured:
PTGER4 (EP4) = molecular target: T1, PTGER4 (EP4) (Homo sapiens, UniProt P35408); assay: hEP4 b-arrestin assay (PathHunter HEK 293 PTGER4 b-arrestin cells); format: cell-based; details: antagonistic activity, beta-arrestin assay; read-out: hEP4 b-arr IC50
T1 construct: host or cells: HEK 293 (PathHunter PTGER4 b-arrestin cell line)
Outline: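 PathHunter HEK 293 cells expressing ProLink-tagged human EP4 and EA-β-arrestin 2, seeded 24 h before. Compounds (10 μM–2 nM or 1 μM–0.2 nM) preincubated 15 min at 37 °C, then 20 nM PGE2 (EC80) for 120 min at 37 °C. β-gal complementation luminescence read; IC50 from duplicate dose-response curves versus DMSO control.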

EP4 receptor = molecular target: T2, EP4 receptor (Homo sapiens, UniProt P35408); assay: hEP4 cAMP assay (BT549 breast cancer cells, HTRF cAMP, PGE2 stimulation); format: cell-based; details: antagonistic activity, PGE2 6 nM (EC80)
T2 construct: BT549 breast cancer cells, express high endogenous EP4 levels and very low EP2 levels; host or cells: BT549 breast cancer cells
Outline: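 BT549 cells, with endogenous EP4 and very low EP2, were preincubated 45 min at room temperature with compound in HBSS/HEPES/BSA buffer with 2 mM IBMX. They were then stimulated 30 min with 6 nM PGE2 (EC80). cAMP was measured by HTRF competitive immunoassay against a calibrator; IC50 from duplicate dose-response as % of DMSO control.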

T2 sequence (P35408 whole entry): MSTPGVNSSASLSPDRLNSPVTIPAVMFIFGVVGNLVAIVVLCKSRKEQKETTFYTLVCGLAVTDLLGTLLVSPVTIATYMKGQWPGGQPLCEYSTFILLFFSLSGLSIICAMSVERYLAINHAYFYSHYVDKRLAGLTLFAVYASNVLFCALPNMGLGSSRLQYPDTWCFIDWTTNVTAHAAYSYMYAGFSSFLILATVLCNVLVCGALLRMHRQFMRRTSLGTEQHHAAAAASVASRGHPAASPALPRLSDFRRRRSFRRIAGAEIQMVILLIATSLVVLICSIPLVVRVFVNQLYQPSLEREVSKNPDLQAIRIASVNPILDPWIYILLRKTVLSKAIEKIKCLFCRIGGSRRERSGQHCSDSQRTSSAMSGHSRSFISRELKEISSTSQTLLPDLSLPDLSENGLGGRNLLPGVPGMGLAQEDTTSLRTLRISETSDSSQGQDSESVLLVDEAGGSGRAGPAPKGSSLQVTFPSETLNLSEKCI
T1 sequence (P35408 whole entry): as above

SMILES	IC50 (PTGER4 (EP4)) [nM]	IC50 (EP4 receptor) [nM]
Cc1cc(-c2cc(NCCc3c(C)oc4c(C)cc(F)cc34)ncn2)sc1C(=O)O [Example 2, 5-{6-[2-(5-Fluoro-2,7-dimethyl-benzofuran-3-yl)-ethylamino]-pyrimidin-4-yl}-3-methyl-thiophene-2-carboxylic acid]	189	117
Cc1cc(-c2cc(NCCc3c(C)sc4c(C)cccc34)ncn2)sc1C(=O)O [Example 3, 5-{6-[2-(2,7-Dimethyl-benzo[b]thiophen-3-yl)-ethylamino]-pyrimidin-4-yl}-3-methyl-thiophene-2-carboxylic acid]	202	222
COc1ccc(Cl)c2c(CCNc3cc(-c4ccc(C(=O)O)c(SC)c4)ncn3)c(C)sc12 [Example 15, 4-{6-[2-(4-Chloro-7-methoxy-2-methyl-benzo[b]thiophen-3-yl)-ethylamino]-pyrimidin-4-yl}-2-methylsulfanyl-benzoic acid]	168	134
CSc1cc(-c2cc(NCCc3c(C)oc4c(C)cc(F)cc34)ncn2)ccc1C(=O)O [Example 16, 4-{6-[2-(5-Fluoro-2,7-dimethyl-benzofuran-3-yl)-ethylamino]-pyrimidin-4-yl}-2-methylsulfanyl-benzoic acid]	391	189
CSc1cc(-c2cc(NCCc3c(C)oc4ccccc34)ncn2)ccc1C(=O)O [Example 18, 4-{6-[2-(2-Methyl-benzofuran-3-yl)-ethylamino]-pyrimidin-4-yl}-2-methylsulfanyl-benzoic acid]	1200	414
CSc1cc(-c2cc(NCCc3c(C)sc4c(Cl)ccc(Cl)c34)ncn2)ccc1C(=O)O [Example 20, 4-{6-[2-(4,7-Dichloro-2-methyl-benzo[b]thiophen-3-yl)-ethylamino]-pyrimidin-4-yl}-2-methylsulfanyl-benzoic acid]	762	532
CSc1cc(-c2cc(NCCc3c(C)sc4c(C)c(F)ccc34)ncn2)ccc1C(=O)O [Example 21, 4-{6-[2-(6-Fluoro-2,7-dimethyl-benzo[b]thiophen-3-yl)-ethylamino]-pyrimidin-4-yl}-2-methylsulfanyl-benzoic acid]	283	564
CCc1oc2c(C)cc(F)cc2c1CCNc1cc(-c2ccc(C(=O)O)c(SC)c2)ncn1 [Example 22, 4-{6-[2-(2-Ethyl-5-fluoro-7-methyl-benzofuran-3-yl)-ethylamino]-pyrimidin-4-yl}-2-methylsulfanyl-benzoic acid]	493	661
CSc1cc(-c2cc(NCCc3c(C)sc4ccccc34)ncn2)ccc1C(=O)O [Example 24, 4-{6-[2-(2-Methyl-benzo[b]thiophen-3-yl)-ethylamino]-pyrimidin-4-yl}-2-methylsulfanyl-benzoic acid]	3420	795
CCOc1cc(-c2cc(NCCc3c(C)sc4c(OC)ccc(F)c34)ncn2)sc1C(=O)O [Example 28, 3-Ethoxy-5-{6-[2-(4-fluoro-7-methoxy-2-methyl-benzo[b]thiophen-3-yl)-ethylamino]-pyrimidin-4-yl}-thiophene-2-carboxylic acid]	5	5
CCOc1cc(-c2cc(NCCc3c(C)sc4c(OC)ccc(Cl)c34)ncn2)sc1C(=O)O [Example 30, 5-{6-[2-(4-Chloro-7-methoxy-2-methyl-benzo[b]thiophen-3-yl)-ethylamino]-pyrimidin-4-yl}-3-ethoxy-thiophene-2-carboxylic acid]	18	11
CCOc1cc(-c2cc(NCCc3c(C)oc4c(OC)cc(F)c(F)c34)ncn2)sc1C(=O)O [Example 31, 5-{6-[2-(4,5-Difluoro-7-methoxy-2-methyl-benzofuran-3-yl)-ethylamino]-pyrimidin-4-yl}-3-ethoxy-thiophene-2-carboxylic acid]	27	13
CCOc1cc(-c2cc(NCCc3csc4ccccc34)ncn2)sc1C(=O)O [Example 33, 5-[6-(2-Benzo[b]thiophen-3-yl-ethylamino)-pyrimidin-4-yl]-3-ethoxy-thiophene-2-carboxylic acid]	168	18
CCOc1cc(-c2cc(NCCc3c(C)oc4c(OC)ccc(F)c34)ncn2)sc1C(=O)O [Example 34, 3-Ethoxy-5-{6-[2-(4-fluoro-7-methoxy-2-methyl-benzofuran-3-yl)-ethylamino]-pyrimidin-4-yl}-thiophene-2-carboxylic acid]	12	22

Other lines, results leading:

IC50 (PTGER4 (EP4)) [nM]	IC50 (EP4 receptor) [nM]	SMILES
262	394	Cc1cc(-c2cc(NCCc3c(C)oc4c(C)cc(Cl)cc34)ncn2)sc1C(=O)O [Example 4, 5-{6-[2-(5-Chloro-2,7-dimethyl-benzofuran-3-yl)-ethylamino]-pyrimidin-4-yl}-3-methyl-thiophene-2-carboxylic acid]
195	105	CSc1cc(-c2cc(NCCc3c(C)sc4c(C)cccc34)ncn2)ccc1C(=O)O [Example 14, 4-{6-[2-(2,7-Dimethyl-benzo[b]thiophen-3-yl)-ethylamino]-pyrimidin-4-yl}-2-methylsulfanyl-benzoic acid]
248	243	CSc1cc(-c2cc(NCCc3c(C)sc4c(C)cc(F)cc34)ncn2)ccc1C(=O)O [Example 17, 4-{6-[2-(5-Fluoro-2,7-dimethyl-benzo[b]thiophen-3-yl)-ethylamino]-pyrimidin-4-yl}-2-methylsulfanyl-benzoic acid]
414	468	CSc1cc(-c2cc(NCCc3c(C)sc4c(C)ccc(Cl)c34)ncn2)ccc1C(=O)O [Example 19, 4-{6-[2-(4-Chloro-2,7-dimethyl-benzo[b]thiophen-3-yl)-ethylamino]-pyrimidin-4-yl}-2-methylsulfanyl-benzoic acid]
488	667	CSc1cc(-c2cc(NCCc3c(C)sc4c(Cl)cc(F)cc34)ncn2)ccc1C(=O)O [Example 23, 4-{6-[2-(7-Chloro-5-fluoro-2-methyl-benzo[b]thiophen-3-yl)-ethylamino]-pyrimidin-4-yl}-2-methylsulfanyl-benzoic acid]
7	1	CCOc1cc(-c2cc(NCCc3c(C)sc4c(C)ccc(F)c34)ncn2)sc1C(=O)O [Example 25, 3-Ethoxy-5-{6-[2-(4-fluoro-2,7-dimethyl-benzo[b]thiophen-3-yl)-ethylamino]-pyrimidin-4-yl}-thiophene-2-carboxylic acid]
25	9	CCOc1cc(-c2cc(NCCc3c(C)sc4c(C)ccc(Cl)c34)ncn2)sc1C(=O)O [Example 29, 5-{6-[2-(4-Chloro-2,7-dimethyl-benzo[b]thiophen-3-yl)-ethylamino]-pyrimidin-4-yl}-3-ethoxy-thiophene-2-carboxylic acid]
16	13	CCOc1cc(-c2cc(NCCc3c(C)sc4c(C)cc(F)cc34)ncn2)sc1C(=O)O [Example 32, 3-Ethoxy-5-{6-[2-(5-fluoro-2,7-dimethyl-benzo[b]thiophen-3-yl)-ethylamino]-pyrimidin-4-yl}-thiophene-2-carboxylic acid]
35	36	CCOc1cc(-c2cc(NCCc3c(C)oc4c(Cl)cccc34)ncn2)sc1C(=O)O [Example 35, 5-{6-[2-(7-Chloro-2-methyl-benzofuran-3-yl)-ethylamino]-pyrimidin-4-yl}-3-ethoxy-thiophene-2-carboxylic acid]
26	44	CCOc1cc(-c2cc(NCCc3c(C)sc4c(C)cccc34)ncn2)sc1C(=O)O [Example 36, 5-{6-[2-(2,7-Dimethyl-benzo[b]thiophen-3-yl)-ethylamino]-pyrimidin-4-yl}-3-ethoxy-thiophene-2-carboxylic acid]
42	49	CCOc1cc(-c2cc(NCCc3c(C)oc4c(C)cc(F)cc34)ncn2)sc1C(=O)O [Example 37, 3-Ethoxy-5-{6-[2-(5-fluoro-2,7-dimethyl-benzofuran-3-yl)-ethylamino]-pyrimidin-4-yl}-thiophene-2-carboxylic acid]
12	80	CCOc1cc(-c2cc(NCCc3c(C)oc4c(OC)cc(Cl)cc34)ncn2)sc1C(=O)O [Example 38, 5-{6-[2-(5-Chloro-7-methoxy-2-methyl-benzofuran-3-yl)-ethylamino]-pyrimidin-4-yl}-3-ethoxy-thiophene-2-carboxylic acid]
50	112	CCOc1cc(-c2cc(NCCc3c(CC)oc4c(C)cc(F)cc34)ncn2)sc1C(=O)O [Example 39, 3-Ethoxy-5-{6-[2-(2-ethyl-5-fluoro-7-methyl-benzofuran-3-yl)-ethylamino]-pyrimidin-4-yl}-thiophene-2-carboxylic acid]
680	433	COc1cc(-c2cc(NCCc3c(C)sc4c(OC)ccc(Cl)c34)ncn2)ccc1C(=O)O [Example 40, 4-{6-[2-(4-Chloro-7-methoxy-2-methyl-benzo[b]thiophen-3-yl)-ethylamino]-pyrimidin-4-yl}-2-methoxy-benzoic acid]
328	224	CCSc1cc(-c2cc(NCCc3c(C)sc4c(C)cccc34)ncn2)ccc1C(=O)O [Example 42, 4-{6-[2-(2,7-Dimethyl-benzo[b]thiophen-3-yl)-ethylamino]-pyrimidin-4-yl}-2-ethylsulfanyl-benzoic acid]
